{"source": "paper PMC12376128", "about": "“In vitro and In Vivo Drug Metabolism Analysis of BPI-460372 - A Covalent TEAD1/3/4 Inhibitor” (Current Drug Metabolism, 2025)", "key": {"monkey hepatocytes [1]": {"tested_on": "monkey hepatocytes", "assay": "Metabolism and metabolite formation in hepatocytes", "type": "in vitro ADME, cynomolgus monkey", "from_the_text": "(§1) All the samples were duplicates."}, "dog hepatocytes [2]": {"tested_on": "dog hepatocytes", "assay": "Metabolism and metabolite formation in hepatocytes", "type": "in vitro ADME, beagle dog", "from_the_text": "as §1"}, "rat hepatocytes [3]": {"tested_on": "rat hepatocytes", "assay": "Metabolism and metabolite formation in hepatocytes", "type": "in vitro ADME, SD rat", "from_the_text": "as §1"}, "mouse hepatocytes [4]": {"tested_on": "mouse hepatocytes", "assay": "Metabolism and metabolite formation in hepatocytes", "type": "in vitro ADME, ICR mouse", "from_the_text": "as §1"}, "human hepatocytes [5]": {"tested_on": "human hepatocytes", "assay": "Metabolism and metabolite formation in hepatocytes", "conditions": "human hepatocytes"}, "in vitro": {"assay": "in vitro", "conditions": "hepatocytes", "procedure": "(§2) After mixing, 20 μL of cell suspension was serially transferred into 200 μL of cold acetonitrile containing IS at the time points of 0, 5, 15, 30, 60, and 120 min, respectively.\n(§3) The metabolic stability was assessed by measuring the depletion of substrate. The half-life (t1/2), intrinsic clearance (CLint, in virto, µL·min^-1·million cells^-1), whole liver intrinsic clearance (CLint, in vivo, mL·min-1·kg^-1), and in vivo hepatic clearance (CLH, mL·min-1·kg^-1) were calculated following a reported method. In the calculation of CLH, the fraction drug unbound (Fub) was set as 1. The hepatic blood flow, liver weight, and hepatocellularity of five species were used for the calculation of CLint, in vivo [13, 14]. The hepatic extraction ratio (Eh) means the ratio of CLH to hepatic blood flow."}, "dog hepatocytes [6]": {"tested_on": "dog hepatocytes", "assay": "in vitro", "procedure": "as §2, §3"}, "human hepatocytes [7]": {"tested_on": "human hepatocytes", "assay": "in vitro", "procedure": "as §2, §3"}, "monkey hepatocytes [8]": {"tested_on": "monkey hepatocytes", "assay": "in vitro", "procedure": "as §2, §3"}, "mouse hepatocytes [9]": {"tested_on": "mouse hepatocytes", "assay": "in vitro", "procedure": "as §2, §3"}, "rat hepatocytes [10]": {"tested_on": "rat hepatocytes", "assay": "in vitro", "procedure": "as §2, §3"}, "[11]": {"assay": "Metabolite identification in rat plasma, urine, feces and bile", "type": "in vivo, SD rats", "conditions": "for Relative abundance of MS peak areas, Rat Plasma 0-24 h: oral 12 mg/kg BPI-460372, average of male and female pooled samples", "procedure": "(§4) The plasma samples were acquired from SD rats (n=6, 3 female and 3 male) and beagle dogs (n=6, 3 female and 3 male) after administration of 12 mg/kg and 8 mg/kg of BPI-460372, respectively. The rat urine, feces, and bile samples were acquired in SD rats after administration of 6 mg/kg of BPI-460372.\n(§5) Equal volume from each rat was pooled together to get 1 male and 1 female 0-24 h plasma samples. An equal percentage by volume of individual urine sample (0-8, 8-24, and 24-48 h) from 3 female and 3 male rats was pooled by time interval across rats, respectively, resulting in two pooled urine samples (1 male and 1 female). An equal percentage by weight of individual feces samples (0-8, 8-24, and 24-48 h) was pooled by time interval across female and male rats, resulting in two pooled fecal samples. An equal percentage by volume of individual bile samples (0-4, 4-8, 8-24, and 24-48 h) was pooled by time interval across female and male rats, resulting in two pooled bile samples. […] Equal volumes from 3 female and 3 male rats were pooled together to get two 0-48 h plasma samples. For blank samples of plasma, urine, and bile, equal volume was pooled across subjects. For a blank sample of feces, equal weight was pooled across rats.\n(§6) The pooled plasma, feces, and bile samples were extracted by adding 3-fold volume of acetonitrile, and the mixture was vortexed (1 min) and sonicated (1 min) before centrifugation (7220 g, 5 min). The pooled urine samples were centrifuged (7220 g, 5 min). Then the supernatant was transferred into a clean tube and evaporated to dryness under the nitrogen stream. The residues were redissolved with an appropriate volume of acetonitrile/water (20: 80, v: v). After centrifugation, the redissolved solution was transferred into an HPLC vial for UHPLC-Orbitrap-HRMS (15000 g, 10 min, 4°C)."}, "[12]": {"assay": "Metabolite identification in dog plasma", "type": "in vivo, beagle dogs", "conditions": "oral 8 mg/kg BPI-460372, average of male and female pooled samples", "procedure": "as §4, §5, §6"}, "[13]": {"conditions": "oral 6 mg/kg BPI-460372, average of male and female pooled samples"}}}
{"smiles": "O=C(O)[C@H]1O[C@@H](Oc2ccc3ccc(=O)oc3c2)[C@H](O)[C@@H](O)[C@@H]1O", "note": "[7-EC-GluA, reference compound]", "values": [{"measurement": "Area Ratio T0 h", "setting": "monkey hepatocytes [1]; monkey hepatocytes, 7-EC incubation, 0 h", "result": "6.08E+02"}, {"measurement": "Area Ratio T4 h", "setting": "monkey hepatocytes [1]; monkey hepatocytes, 7-EC incubation, 4 h", "result": "1.55E+07"}, {"measurement": "Area Ratio T0 h", "setting": "dog hepatocytes [2]; dog hepatocytes, 7-EC incubation, 0 h", "result": "0.00E+00"}, {"measurement": "Area Ratio T4 h", "setting": "dog hepatocytes [2]; dog hepatocytes, 7-EC incubation, 4 h", "result": "1.27E+07"}, {"measurement": "Area Ratio T0 h", "setting": "rat hepatocytes [3]; rat hepatocytes, 7-EC incubation, 0 h", "result": "1.45E+02"}, {"measurement": "Area Ratio T4 h", "setting": "rat hepatocytes [3]; rat hepatocytes, 7-EC incubation, 4 h", "result": "8.08E+05"}, {"measurement": "Area Ratio T0 h", "setting": "mouse hepatocytes [4]; mouse hepatocytes, 7-EC incubation, 0 h", "result": "0.00E+00"}, {"measurement": "Area Ratio T4 h", "setting": "mouse hepatocytes [4]; mouse hepatocytes, 7-EC incubation, 4 h", "result": "7.44E+06"}, {"measurement": "Area Ratio T0 h", "setting": "human hepatocytes [5]; 7-EC incubation, 0 h", "result": "1.07E+03"}, {"measurement": "Area Ratio T4 h", "setting": "human hepatocytes [5]; 7-EC incubation, 4 h", "result": "3.85E+06"}]}
{"smiles": "O=c1ccc2ccc(O)cc2o1", "note": "[7-hydroxycoumarin]", "values": [{"measurement": "half-life at 1 µM", "setting": "in vitro; ICR, mouse", "result": 49.3, "unit": "min"}, {"measurement": "half-life at 1 µM", "setting": "in vitro; SD, rat", "result": 22.5, "unit": "min"}, {"measurement": "half-life at 1 µM", "setting": "in vitro; beagle, dog", "result": 29.8, "unit": "min"}, {"measurement": "half-life at 1 µM", "setting": "in vitro; human", "result": 20.4, "unit": "min"}, {"measurement": "half-life at 1 µM", "setting": "in vitro; monkey", "result": 17.8, "unit": "min"}, {"measurement": "CLH", "setting": "dog hepatocytes [6]; beagle, dog, 1 µM", "result": 25.9, "unit": "mL/min/kg"}, {"measurement": "Eh", "setting": "dog hepatocytes [6]; beagle, dog, 1 µM", "result": 0.838}, {"measurement": "CLint, in virto", "setting": "dog hepatocytes [6]; dog, hepatocytes", "result": "23.3 µL·min^-1·Million cells^-1"}, {"measurement": "CLint, in vivo", "setting": "dog hepatocytes [6]; hepatocytes", "result": 160.0, "unit": "mL/min/kg"}, {"measurement": "CLint, in vivo", "setting": "human hepatocytes [7]; hepatocytes", "result": 122.6, "unit": "mL/min/kg"}, {"measurement": "CLH", "setting": "human hepatocytes [7]; human, 1 µM", "result": 17.7, "unit": "mL/min/kg"}, {"measurement": "Eh", "setting": "human hepatocytes [7]; human, 1 µM", "result": 0.856}, {"measurement": "CLint, in virto", "setting": "human hepatocytes [7]; human, hepatocytes", "result": "33.9 µL·min^-1·Million cells^-1"}, {"measurement": "CLH", "setting": "monkey hepatocytes [8]; cynomolgus monkey, 1 µM", "result": 33.5, "unit": "mL/min/kg"}, {"measurement": "Eh", "setting": "monkey hepatocytes [8]; cynomolgus monkey, 1 µM", "result": 0.762}, {"measurement": "CLint, in vivo", "setting": "monkey hepatocytes [8]; hepatocytes", "result": 140.6, "unit": "mL/min/kg"}, {"measurement": "CLint, in virto", "setting": "monkey hepatocytes [8]; monkey, hepatocytes", "result": "39.0 µL·min^-1·Million cells^-1"}, {"measurement": "CLH", "setting": "mouse hepatocytes [9]; ICR, mouse, 1 µM", "result": 58.5, "unit": "mL/min/kg"}, {"measurement": "Eh", "setting": "mouse hepatocytes [9]; ICR, mouse, 1 µM", "result": 0.650}, {"measurement": "CLint, in vivo", "setting": "mouse hepatocytes [9]; hepatocytes", "result": 167.1, "unit": "mL/min/kg"}, {"measurement": "CLint, in virto", "setting": "mouse hepatocytes [9]; mouse, hepatocytes", "result": "14.1 µL·min^-1·Million cells^-1"}, {"measurement": "CLH", "setting": "rat hepatocytes [10]; SD, rat, 1 µM", "result": 39.9, "unit": "mL/min/kg"}, {"measurement": "Eh", "setting": "rat hepatocytes [10]; SD, rat, 1 µM", "result": 0.723}, {"measurement": "CLint, in vivo", "setting": "rat hepatocytes [10]; hepatocytes", "result": 144.0, "unit": "mL/min/kg"}, {"measurement": "CLint, in virto", "setting": "rat hepatocytes [10]; rat, hepatocytes", "result": "30.8 µL·min^-1·Million cells^-1"}]}
{"smiles": "NCC(C(=O)O)n1c(=O)n(-c2ccc(C(F)(F)F)cc2)c2nccnc21", "note": "(stereo not drawn) [M367]", "values": [{"measurement": "Relative abundance of MS peak areas, Rat Feces 0-48 h", "setting": "[11]; [13]", "result": 2.77, "unit": "%"}, {"measurement": "Relative abundance of MS peak areas, Rat Urine 0-48 h", "setting": "[11]; [13]", "result": 2.55, "unit": "%"}, {"measurement": "Relative abundance of MS peak areas, Rat Plasma 0-24 h", "setting": "[11]", "result": 0.065, "unit": "%"}, {"measurement": "Relative abundance of MS peak areas, Dog Plasma 0-48 h", "setting": "[12]", "result": 0.83, "unit": "%"}]}
{"smiles": "CC(=O)N1CC(n2c(=O)n(-c3ccc(C(F)(F)F)cc3)c3nccnc32)C1", "note": "[M377]", "values": [{"measurement": "UV (314 nm) Peak Areas Relative Abundance", "setting": "monkey hepatocytes [1]; cynomolgus monkey hepatocytes, 10 µM BPI-460372, 4 h incubation", "result": 2.50, "unit": "%"}, {"measurement": "UV (314 nm) Peak Areas Relative Abundance", "setting": "dog hepatocytes [2]; beagle dog hepatocytes, 10 µM BPI-460372, 4 h incubation", "result": 2.44, "unit": "%"}, {"measurement": "UV (314 nm) Peak Areas Relative Abundance", "setting": "rat hepatocytes [3]; SD rat hepatocytes, 10 µM BPI-460372, 4 h incubation", "result": 2.6, "unit": "%"}, {"measurement": "UV (314 nm) Peak Areas Relative Abundance", "setting": "mouse hepatocytes [4]; ICR mouse hepatocytes, 10 µM BPI-460372, 4 h incubation", "result": 3.57, "unit": "%"}, {"measurement": "UV (314 nm) Peak Areas Relative Abundance", "setting": "human hepatocytes [5]; 10 µM BPI-460372, 4 h incubation", "result": 1.48, "unit": "%"}]}
{"smiles": "C=CC(=O)N1CC(n2c(=O)n(-c3ccc(C(F)(F)F)cc3)c3nccnc32)C1", "note": "[M389]", "values": [{"measurement": "Relative abundance of MS peak areas, Rat Bile 0-48 h", "setting": "[11]; [13]", "result": 0.040, "unit": "%"}, {"measurement": "Relative abundance of MS peak areas, Rat Feces 0-48 h", "setting": "[11]; [13]", "result": 16.59, "unit": "%"}, {"measurement": "Relative abundance of MS peak areas, Rat Urine 0-48 h", "setting": "[11]; [13]", "result": 0.050, "unit": "%"}, {"measurement": "Relative abundance of MS peak areas, Rat Plasma 0-24 h", "setting": "[11]", "result": 0.67, "unit": "%"}, {"measurement": "Relative abundance of MS peak areas, Dog Plasma 0-48 h", "setting": "[12]", "result": 0.15, "unit": "%"}]}
{"smiles": "CCC(=O)N1CC(n2c(=O)n(-c3ccc(C(F)(F)F)cc3)c3nccnc32)C1", "note": "[M391]", "values": [{"measurement": "Relative abundance of MS peak areas, Rat Feces 0-48 h", "setting": "[11]; [13]", "result": 21.50, "unit": "%"}, {"measurement": "Relative abundance of MS peak areas, Rat Urine 0-48 h", "setting": "[11]; [13]", "result": 0.015, "unit": "%"}, {"measurement": "Relative abundance of MS peak areas, Rat Plasma 0-24 h", "setting": "[11]", "result": 0.35, "unit": "%"}, {"measurement": "Relative abundance of MS peak areas, Dog Plasma 0-48 h", "setting": "[12]", "result": 0.36, "unit": "%"}]}
{"smiles": "O=c1n(-c2ccc(C(F)(F)F)cc2)c2nccnc2n1C1CN(C(O)C(O)CO)C1", "note": "(stereo not drawn) [M425]", "values": [{"measurement": "Relative abundance of MS peak areas, Rat Feces 0-48 h", "setting": "[11]; [13]", "result": 2.79, "unit": "%"}, {"measurement": "Relative abundance of MS peak areas, Rat Urine 0-48 h", "setting": "[11]; [13]", "result": 2.52, "unit": "%"}, {"measurement": "Relative abundance of MS peak areas, Rat Plasma 0-24 h", "setting": "[11]", "result": 0.14, "unit": "%"}, {"measurement": "Relative abundance of MS peak areas, Dog Plasma 0-48 h", "setting": "[12]", "result": 0.98, "unit": "%"}]}
